Assay [1] concerns the target T1, Cannabinoid receptor 2 (Homo sapiens, UniProt P34972). The experiment in a line: Potency index, ratio of alpha-santalol Ki to test compound Ki for displacement of [3H]-CP55940 from human CB2 receptor expressed in CHO cell membranes incubated for 1 hr by TopCount liquid scintillation counting analysis. The note with it: Membrane, filed as agonist.
Assay [2] has as its target T1, Cannabinoid receptor 2. Kind of assay: Agonist activity at CB2 receptor (unknown origin) expressed in human SH-SY5Y cells assessed as increase in intracellular calcium flux at 0.032 to 0.1 uM incubated for 3 mins in presence of 60 nM AM-630 by Fluo-4AM dye based fluorescence analysis. Format: functional, cell-based. The note with it: dose 0.032-0.1 µM.
The target of assay [3] is T1, Cannabinoid receptor 2. The experiment in a line: Displacement of [3H]-CP55940 from human CB2 receptor expressed in CHO cell membranes assessed as inhibition constant incubated for 1 hr by TopCount liquid scintillation counting analysis. Further details: species or system Membrane.
In assay [4] the target is T1, Cannabinoid receptor 2. The experiment in a line: Agonist activity at CB2 receptor (unknown origin) expressed in human SH-SY5Y cells assessed as increase in intracellular calcium flux at 0.032 to 0.1 uM incubated for 3 mins by Fluo-4AM dye based fluorescence analysis. Format: functional, cell-based. To be noted: filed as agonist, dose 0.032-0.1 µM.
The target in assay [5] is T1, Cannabinoid receptor 2. The experiment in a line: Displacement of [3H]-CP55940 from human CB2 receptor expressed in CHO cell membranes at 10 uM incubated for 1 hr by TopCount liquid scintillation counting analysis relative to control. The note with it: Membrane.
In assay [6] the target is T1, Cannabinoid receptor 2. Kind of assay: Agonist activity at CB2 receptor (unknown origin) expressed in human SH-SY5Y cells assessed as increase in intracellular calcium flux at 0.032 to 0.1 uM incubated for 3 mins in presence of 10 uM raloxifene by Fluo-4AM dye based fluorescence analysis. Format: functional, cell-based. To be noted: dose 0.032-0.1 µM.
In assay [7] the target is Cannabinoid receptor 1 (Homo sapiens) (UniProt P21554). Kind of assay: Displacement of [3H]-CP55940 from human CB1 receptor expressed in CHO cell membranes at 10 uM incubated for 1 hr by TopCount liquid scintillation counting analysis relative to control. To be noted: Membrane.
Chain of Cannabinoid receptor 1 (Homo sapiens) (P21554 whole entry): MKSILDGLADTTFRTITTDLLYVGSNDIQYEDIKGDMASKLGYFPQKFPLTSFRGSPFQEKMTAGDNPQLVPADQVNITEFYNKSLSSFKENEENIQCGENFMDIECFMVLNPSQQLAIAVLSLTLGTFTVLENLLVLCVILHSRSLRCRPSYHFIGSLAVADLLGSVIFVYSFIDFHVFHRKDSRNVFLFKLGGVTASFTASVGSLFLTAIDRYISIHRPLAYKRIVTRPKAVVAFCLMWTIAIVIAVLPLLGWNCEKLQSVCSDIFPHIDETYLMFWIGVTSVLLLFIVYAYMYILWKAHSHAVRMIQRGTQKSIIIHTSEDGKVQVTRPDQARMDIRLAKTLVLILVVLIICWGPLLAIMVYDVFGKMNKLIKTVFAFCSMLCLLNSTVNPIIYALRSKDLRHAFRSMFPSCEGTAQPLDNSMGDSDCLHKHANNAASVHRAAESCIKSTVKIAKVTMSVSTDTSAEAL
For assay [8], the target named is 5-hydroxytryptamine receptor 2A (Rattus norvegicus, UniProt P14842). Kind of assay: Displacement of [3H]-ketanserin from rat brain cortex 5-HT2A receptor incubated for 60 mins by liquid scintillation counting analysis. Format: tissue-based.
Chain of 5-hydroxytryptamine receptor 2A (P14842 whole entry): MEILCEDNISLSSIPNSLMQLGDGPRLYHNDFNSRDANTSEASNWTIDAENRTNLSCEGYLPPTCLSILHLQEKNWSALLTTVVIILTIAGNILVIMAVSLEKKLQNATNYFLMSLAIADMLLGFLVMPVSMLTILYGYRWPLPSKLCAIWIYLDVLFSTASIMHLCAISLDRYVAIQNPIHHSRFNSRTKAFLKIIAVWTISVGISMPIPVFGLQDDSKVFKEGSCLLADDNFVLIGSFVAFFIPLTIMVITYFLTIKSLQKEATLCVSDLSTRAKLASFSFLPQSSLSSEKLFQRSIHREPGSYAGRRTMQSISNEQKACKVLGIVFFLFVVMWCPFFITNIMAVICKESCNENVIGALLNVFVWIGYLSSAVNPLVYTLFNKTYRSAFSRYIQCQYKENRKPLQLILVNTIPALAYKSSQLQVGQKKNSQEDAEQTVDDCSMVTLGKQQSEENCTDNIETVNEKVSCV
The target of assay [9] is T1, Cannabinoid receptor 2. Kind of assay: Agonist activity at CB2 receptor (unknown origin) expressed in human SH-SY5Y cells assessed as increase in intracellular calcium flux at 3.2 to 10 uM incubated for 3 mins in presence of 60 nM AM-630 by Fluo-4AM dye based fluorescence analysis. The class given is functional, cell-based. The note with it: dose 3.2-10 µM.
Assay [10] concerns the target D(2) dopamine receptor (Rattus norvegicus, UniProt P61169). The experiment in a line: Displacement of [3H]-raclopride from rat brain striatum dopamine D2 receptor incubated for 60 mins by liquid scintillation counting analysis. Format: tissue-based.
For assay [11], the target named is T1, Cannabinoid receptor 2. Kind of assay: Agonist activity at CB2 receptor (unknown origin) expressed in human SH-SY5Y cells assessed as increase in intracellular calcium flux at 3.2 to 10 uM incubated for 3 mins by Fluo-4AM dye based fluorescence analysis. The class given is functional, cell-based. To be noted: filed as agonist, dose 3.2-10 µM.
The target of assay [12] is T1, Cannabinoid receptor 2. Kind of assay: Agonist activity at CB2 receptor (unknown origin) expressed in human SH-SY5Y cells assessed as increase in intracellular calcium flux at 3.2 to 10 uM incubated for 3 mins in presence of 10 uM raloxifene by Fluo-4AM dye based fluorescence analysis. Format: functional, cell-based. To be noted: dose 3.2-10 µM.

We go through 13 molecules from ChEMBL document CHEMBL5390202, “Cannabinoid Receptor Type II Ligands from Sandalwood Oil and Synthetic α-Santalol Derivatives” (J Nat Prod, 2023).

Calls of active or inactive are those of the source. The calls are words filed in the database; no cut-off is given here.

T1 sequence (P34972 whole entry): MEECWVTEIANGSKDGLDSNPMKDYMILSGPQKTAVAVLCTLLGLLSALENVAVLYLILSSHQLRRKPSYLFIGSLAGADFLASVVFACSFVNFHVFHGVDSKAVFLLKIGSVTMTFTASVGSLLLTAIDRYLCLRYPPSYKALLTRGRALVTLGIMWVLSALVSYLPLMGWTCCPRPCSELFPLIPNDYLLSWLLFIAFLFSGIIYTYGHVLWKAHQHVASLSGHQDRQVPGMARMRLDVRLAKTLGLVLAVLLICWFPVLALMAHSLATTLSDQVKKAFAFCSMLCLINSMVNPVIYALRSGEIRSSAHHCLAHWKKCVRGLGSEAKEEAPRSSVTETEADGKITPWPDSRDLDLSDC
Chain of D(2) dopamine receptor (P61169 whole entry): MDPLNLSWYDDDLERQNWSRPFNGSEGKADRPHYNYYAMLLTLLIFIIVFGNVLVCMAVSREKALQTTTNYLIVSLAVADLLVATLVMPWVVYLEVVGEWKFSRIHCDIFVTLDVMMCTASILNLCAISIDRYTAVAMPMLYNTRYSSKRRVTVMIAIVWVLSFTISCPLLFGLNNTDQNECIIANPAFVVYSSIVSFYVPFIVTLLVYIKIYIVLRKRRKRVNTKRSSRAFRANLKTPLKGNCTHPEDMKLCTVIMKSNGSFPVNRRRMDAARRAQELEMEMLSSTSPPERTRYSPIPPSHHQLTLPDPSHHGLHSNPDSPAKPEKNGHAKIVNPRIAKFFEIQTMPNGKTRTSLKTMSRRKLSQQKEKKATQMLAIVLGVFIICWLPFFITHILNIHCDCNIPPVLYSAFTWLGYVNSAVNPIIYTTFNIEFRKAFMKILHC

Turning to `C/C(=C/CC[C@]1(C)[C@H]2C[C@@H]3[C@@H](C2)[C@]31C)CN1CCN(C)CC1`, in assay [1], the Ratio Ki came out at 10.6. Besides, the result in assay [2] and in assay [6] was inactive. In assay [3], the Ki was found to be 0.99 µM. In addition, the outcome in assay [4] was Active. For the same molecule, the Activity in assay [5] (filed as agonist) was 82.1%; in assay [7], less than 20%.

Molecule `C/C(=C/CC[C@]1(C)[C@@H]2C[C@@H]3[C@H](C2)[C@@]31C)CNNC(=O)c1ccccc1` showed an Activity in [5] of 26.9%.

Consider `C/C(=C/CC[C@]1(C)[C@H]2CC3[C@H](C2)[C@]31C)CO`, for which the IC50 in [8] worked out at 180 µM; in assay [10], 75 µM. The outcome in assay [9] and in assay [12] was inactive. In addition, the Ki in assay [3] turned out to be 10.5 µM. Further, the result in assay [11] was Active. The Activity in assay [5] (filed as agonist) is 62.5%; in assay [7] it was less than 16%.

For `O=C(c1ccc(OCCN2CCCCC2)cc1)c1c(-c2ccc(O)cc2)sc2cc(O)ccc12` [RALOXIFENE], the Ki in assay [3] was approximately 0.24 µM.

On to `COc1ccc(C(=O)c2c(C)n(CCN3CCOCC3)c3cc(I)ccc23)cc1`, for which the Activity in [5] (filed as antagonist) was determined as 93%.

`C/C(=C/CC[C@]1(C)[C@@H]2C[C@@H]3[C@H](C2)[C@@]31C)CN1CCCC1`: in [5], the Activity came out at 8.03%.

On to `C/C(=C/CC[C@]1(C)[C@@H]2C[C@@H]3[C@H](C2)[C@@]31C)CNNC(=O)c1ccc(N(C)C)cc1`, for which, in assay [5], the Activity is 26.5%.

With `C/C(=C/CC[C@]1(C)[C@@H]2C[C@@H]3[C@H](C2)[C@@]31C)CN(C)C`, in assay [5], the Activity came out at 2.94%.

`C/C(=C/CC[C@]1(C)[C@@H]2C[C@@H]3[C@H](C2)[C@@]31C)CN(CCO)CCO`: the Activity in [5] is 1.72%.

As to `C=C1[C@@H]2CC[C@@H](C2)[C@@]1(C)CC/C=C(/C)CO`, the outcome in [9] and in assay [12] was inactive. Moreover, the Ki in [3] was 8.19 µM. For the same molecule, the result in [11] was Active. The Activity in [5] (filed as agonist) is 55.8%; in assay [7], less than 16%.

Take `C/C(=C/CC[C@]1(C)[C@@H]2C[C@@H]3[C@H](C2)[C@@]31C)CN1CCCCC1`: in assay [5], the Activity was determined as 16.8%.

For `C/C(=C/CC[C@]1(C)[C@@H]2C[C@@H]3[C@H](C2)[C@@]31C)CN1CCOCC1`, the Activity in assay [5] was found to be 21.3%.

`C/C(=C/CC[C@]1(C)[C@@H]2C[C@@H]3[C@H](C2)[C@@]31C)COC(=O)CCC(=O)O` showed an Activity in assay [5] of 5.82%.
